Measurements: PubChem BioAssay (NCI)
Several values for one entry are separate records, joined by “and”; a condition that tells them apart may be missing. Equal entries are not always repeated.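 Dose response: 5 concentrations. Exposure: 48 h. Format: 96-well plates. Endpoint: linear interpolation; highest concentration if not reached. TGI denotes the concentration required for complete inhibition of growth.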

What was measured:
Experiment in all cases: NCI-60 cell line screen, 48 h
NCI-H522 lung = tested on: NCI-H522 lung
IGROV1 ovarian = tested on: IGROV1 ovarian
KM20L2 colon = tested on: KM20L2 colon
SNB-78 CNS = tested on: SNB-78 CNS
LOX IMVI melanoma = tested on: LOX IMVI melanoma
NCI-H226 lung = tested on: NCI-H226 lung
SR leukemia = tested on: SR leukemia
SK-MEL-5 melanoma = tested on: SK-MEL-5 melanoma
RXF 393 renal = tested on: RXF 393 renal
HOP-18 NSCLC = tested on: HOP-18 NSCLC
CCRF-CEM leukemia = tested on: CCRF-CEM leukemia
MOLT-4 leukemia = tested on: MOLT-4 leukemia
EKVX NSCLC = tested on: EKVX NSCLC
UACC-62 melanoma = tested on: UACC-62 melanoma
ACHN renal = tested on: ACHN renal
M14 melanoma = tested on: M14 melanoma
NCI-H23 lung = tested on: NCI-H23 lung
SF-539 CNS = tested on: SF-539 CNS
SK-OV-3 ovarian = tested on: SK-OV-3 ovarian
786-0 renal = tested on: 786-0 renal
HL-60(TB) leukemia = tested on: HL-60(TB) leukemia
OVCAR-5 ovarian = tested on: OVCAR-5 ovarian
HOP-92 NSCLC = tested on: HOP-92 NSCLC
A498 renal = tested on: A498 renal
UO-31 renal = tested on: UO-31 renal
COLO 205 colon = tested on: COLO 205 colon
A549 NSCLC = tested on: A549 NSCLC
MALME-3M melanoma = tested on: MALME-3M melanoma
SK-MEL-2 melanoma = tested on: SK-MEL-2 melanoma
KM12 colon = tested on: KM12 colon
SW-620 colon = tested on: SW-620 colon
HCT-116 colon = tested on: HCT-116 colon
U251 CNS = tested on: U251 CNS
DMS 273 small cell lung = tested on: DMS 273 small cell lung
LXFL 529 NSCLC = tested on: LXFL 529 NSCLC
SF-295 CNS = tested on: SF-295 CNS
OVCAR-8 ovarian = tested on: OVCAR-8 ovarian
NCI-H460 lung = tested on: NCI-H460 lung
OVCAR-3 ovarian = tested on: OVCAR-3 ovarian
OVCAR-4 ovarian = tested on: OVCAR-4 ovarian
K-562 leukemia = tested on: K-562 leukemia
HCT-15 colon = tested on: HCT-15 colon
DMS 114 small cell lung = tested on: DMS 114 small cell lung
CAKI-1 renal = tested on: CAKI-1 renal
SF-268 CNS = tested on: SF-268 CNS
SNB-75 CNS = tested on: SNB-75 CNS
HT29 colon = tested on: HT29 colon
SK-MEL-28 melanoma = tested on: SK-MEL-28 melanoma
DLD-1 colon = tested on: DLD-1 colon
TK-10 renal = tested on: TK-10 renal
UACC-257 melanoma = tested on: UACC-257 melanoma
SNB-19 CNS = tested on: SNB-19 CNS
SN12C renal = tested on: SN12C renal
HCC-2998 colon = tested on: HCC-2998 colon
HOP-62 NSCLC = tested on: HOP-62 NSCLC
M19-MEL melanoma = tested on: M19-MEL melanoma
MDA-MB-231 breast = tested on: MDA-MB-231 breast
BT-549 breast = tested on: BT-549 breast
MDA-N = tested on: MDA-N
RPMI-8226 leukemia = tested on: RPMI-8226 leukemia
DU-145 prostate = tested on: DU-145 prostate
HS 578T breast = tested on: HS 578T breast
PC-3 prostate = tested on: PC-3 prostate
MCF7 breast = tested on: MCF7 breast
T-47D breast = tested on: T-47D breast

Cc1ccc(Oc2ccc(C(=O)c3cccc(C(=O)c4ccc(Oc5ccc(C)cc5)cc4)n3)cc2)cc1
TGI (NCI-H522 lung): > 100 µM | TGI (IGROV1 ovarian): > 100 µM | TGI (KM20L2 colon): > 100 µM | TGI (SNB-78 CNS): > 100 µM | TGI (LOX IMVI melanoma): > 100 µM | TGI (NCI-H226 lung): > 100 µM | TGI (SR leukemia): > 100 µM | TGI (SK-MEL-5 melanoma): > 100 µM | TGI (RXF 393 renal): > 100 µM | TGI (HOP-18 NSCLC): > 100 µM | TGI (CCRF-CEM leukemia): > 100 µM | TGI (MOLT-4 leukemia): > 100 µM | TGI (EKVX NSCLC): > 100 µM | TGI (UACC-62 melanoma): > 100 µM | TGI (ACHN renal): > 100 µM | TGI (M14 melanoma): > 100 µM | TGI (NCI-H23 lung): > 100 µM | TGI (SF-539 CNS): > 100 µM | TGI (SK-OV-3 ovarian): > 100 µM | TGI (786-0 renal): > 100 µM | TGI (HL-60(TB) leukemia): > 100 µM | TGI (OVCAR-5 ovarian): > 100 µM | TGI (HOP-92 NSCLC): > 100 µM | TGI (A498 renal): > 100 µM | TGI (UO-31 renal): > 100 µM | TGI (COLO 205 colon): > 100 µM | TGI (A549 NSCLC): > 100 µM | TGI (MALME-3M melanoma): > 100 µM | TGI (SK-MEL-2 melanoma): > 100 µM | TGI (KM12 colon): > 100 µM | TGI (SW-620 colon): > 100 µM | TGI (HCT-116 colon): > 100 µM | TGI (U251 CNS): > 100 µM | TGI (DMS 273 small cell lung): > 100 µM | TGI (LXFL 529 NSCLC): > 100 µM | TGI (SF-295 CNS): > 100 µM | TGI (OVCAR-8 ovarian): > 100 µM | TGI (NCI-H460 lung): > 100 µM | TGI (OVCAR-3 ovarian): > 100 µM | TGI (OVCAR-4 ovarian): > 100 µM | TGI (K-562 leukemia): > 100 µM | TGI (HCT-15 colon): > 100 µM | TGI (DMS 114 small cell lung): > 100 µM | TGI (CAKI-1 renal): > 100 µM | TGI (SF-268 CNS): > 100 µM | TGI (SNB-75 CNS): > 100 µM | TGI (HT29 colon): > 100 µM | TGI (SK-MEL-28 melanoma): > 100 µM | TGI (DLD-1 colon): > 100 µM | TGI (TK-10 renal): > 100 µM | TGI (UACC-257 melanoma): > 100 µM | TGI (SNB-19 CNS): > 100 µM | TGI (SN12C renal): > 100 µM | TGI (HCC-2998 colon): > 100 µM | TGI (HOP-62 NSCLC): > 100 µM

COc1cc2c(cc1OC)-c1cc(OC)c(OC)cc1[C@H]1CN3CCC[C@@]3(O)C=C21
TGI (NCI-H522 lung): < 0.0001 µM | TGI (SNB-78 CNS): 0.00164 µM | TGI (NCI-H226 lung): 0.00253 µM | TGI (SR leukemia): < 0.0001 µM | TGI (SK-MEL-5 melanoma): 0.000139 µM | TGI (RXF 393 renal): 0.0126 µM | TGI (HOP-18 NSCLC): 0.000164 µM | TGI (ACHN renal): 0.000787 µM | TGI (M14 melanoma): 0.000105 µM | TGI (NCI-H23 lung): 0.000267 µM | TGI (M19-MEL melanoma): 0.000362 µM | TGI (HL-60(TB) leukemia): < 0.0001 µM | TGI (COLO 205 colon): < 0.0001 µM | TGI (A549 NSCLC): 0.106 µM and 0.414 µM | TGI (MALME-3M melanoma): < 0.0001 µM | TGI (SK-MEL-2 melanoma): < 0.0001 µM | TGI (KM12 colon): 0.00316 µM and 0.0152 µM | TGI (HCT-116 colon): 0.0101 µM | TGI (DMS 273 small cell lung): 0.000208 µM | TGI (OVCAR-4 ovarian): 0.0032 µM and 0.0117 µM | TGI (K-562 leukemia): 0.101 µM and 0.0521 µM | TGI (DMS 114 small cell lung): 0.00117 µM | TGI (CAKI-1 renal): 0.000403 µM | TGI (TK-10 renal): 0.161 µM | TGI (HCC-2998 colon): 0.0437 µM

C=C[C@]1(C)CC(O)C2C(=C)C(=O)OC2[C@H]1C(=C)C=O (some centres undefined)
TGI (NCI-H522 lung): 2.35 µM | TGI (MDA-MB-231 breast): 10.3 µM | TGI (IGROV1 ovarian): 25 µM | TGI (KM20L2 colon): 17.4 µM | TGI (SNB-78 CNS): 13.4 µM | TGI (BT-549 breast): 15.8 µM | TGI (LOX IMVI melanoma): 4.6 µM | TGI (NCI-H226 lung): 13.9 µM | TGI (SR leukemia): 20 µM | TGI (SK-MEL-5 melanoma): 6.66 µM | TGI (RXF 393 renal): 4.83 µM | TGI (MDA-N): 36.8 µM | TGI (RPMI-8226 leukemia): 5.94 µM | TGI (HOP-18 NSCLC): 15.1 µM | TGI (CCRF-CEM leukemia): 4.4 µM | TGI (DU-145 prostate): 27.1 µM | TGI (MOLT-4 leukemia): 21.8 µM | TGI (EKVX NSCLC): 33.7 µM | TGI (UACC-62 melanoma): 3.83 µM | TGI (ACHN renal): 6.33 µM | TGI (M14 melanoma): 8.18 µM | TGI (NCI-H23 lung): 7.62 µM | TGI (SF-539 CNS): 10.5 µM | TGI (SK-OV-3 ovarian): 66.2 µM | TGI (HS 578T breast): > 100 µM | TGI (PC-3 prostate): 10 µM | TGI (M19-MEL melanoma): 7.98 µM | TGI (786-0 renal): 4.47 µM | TGI (HL-60(TB) leukemia): 2.41 µM | TGI (OVCAR-5 ovarian): 24.8 µM | TGI (HOP-92 NSCLC): 6.08 µM | TGI (MCF7 breast): 3.18 µM | TGI (A498 renal): 14.7 µM | TGI (UO-31 renal): 13.7 µM | TGI (COLO 205 colon): 21.7 µM | TGI (A549 NSCLC): 43.6 µM | TGI (MALME-3M melanoma): 3.62 µM | TGI (SK-MEL-2 melanoma): 13.4 µM | TGI (KM12 colon): 12.5 µM | TGI (SW-620 colon): 4.19 µM | TGI (HCT-116 colon): 3.26 µM | TGI (U251 CNS): 24.8 µM | TGI (LXFL 529 NSCLC): 3.47 µM | TGI (T-47D breast): 9.35 µM | TGI (SF-295 CNS): 30.2 µM | TGI (OVCAR-8 ovarian): 6.74 µM | TGI (NCI-H460 lung): 31.8 µM | TGI (OVCAR-3 ovarian): 7.24 µM | TGI (OVCAR-4 ovarian): 17.7 µM | TGI (K-562 leukemia): 8.52 µM | TGI (HCT-15 colon): 7.22 µM | TGI (DMS 114 small cell lung): 22.6 µM | TGI (CAKI-1 renal): 13.5 µM | TGI (SF-268 CNS): 8.21 µM | TGI (SNB-75 CNS): 47.9 µM | TGI (HT29 colon): 7.05 µM | TGI (SK-MEL-28 melanoma): 4.37 µM | TGI (DLD-1 colon): 6.73 µM | TGI (TK-10 renal): 11.4 µM | TGI (UACC-257 melanoma): 4.31 µM | TGI (SNB-19 CNS): 44.1 µM | TGI (SN12C renal): 5.88 µM | TGI (HCC-2998 colon): 27.9 µM | TGI (HOP-62 NSCLC): 34 µM
